These results are taken from publication PMC10833116 (Journal of Enzyme Inhibition and Medicinal Chemistry, 2024).

In the data set the test system is adult female Wistar rats. As to the kind of experiment: Gastric ulcerogenic activity. Type of data set: in vivo, rat. The settings on record: fasted rats.

Structures are written as SMILES.

For the compound `Cc1ccc(-c2cc(C(F)(F)F)nn2-c2ccc(S(N)(=O)=O)cc2)cc1` [Celecoxib, celecoxib, reference compound], the “Gastric ulcerogenic potential, gross examination” value is given as “no ulceration”. Then `Cc1ccc(C(C)C)c(O)c1C=NN=c1scc(-c2ccccc2)n1-c1ccccc1` [Compound 6a, 2-((2-Hydroxy-3-isopropyl-6-methylbenzylidene)hydrazono)-3,4-diphenyl-2,3-dihydrothiazole], with “no ulceration”. With `Cc1ccc(C(C)C)c(O)c1C=NN=c1scc(-c2ccccc2)n1-c1ccccc1Cl` [Compound 6b, 2-((2-Hydroxy-3-isopropyl-6-methylbenzylidene)hydrazono)-3-(2-chlorophenyl)-4-phenyl-2,3-dihydrothiazole] the entry was “no ulceration”; with `Cc1ccc(C(C)C)c(O)c1C=NN=c1scc(-c2ccc(Br)cc2)n1-c1ccccc1Cl` [Compound 6f, 2-((2-Hydroxy-3-isopropyl-6-methylbenzylidene)hydrazono)-3-(2-chlorophenyl)-4-(4-bromophenyl)-2,3-dihydrothiazole], “no ulceration”; with `O=C(O)Cc1ccccc1Nc1c(Cl)cccc1Cl` [Diclofenac sodium, diclofenac sodium, reference compound], “no ulceration”.
